# Results: patent US8088402B2, “Bone growth compositions and methods” (Neuropro Technologies, Inc., priority 2002, dated 2012)
# Tested on: male Sprague Dawley rats
# Assay: Manual palpation scoring of spinal fusion strength after decortication in rats
# Assay type: in vivo, rat
# Procedure: Twelve male Sprague Dawley rats, each weighing approximately 500 grams were selected. Each rat underwent anesthesia with Nembutal (50 mg/kg i.p.). Incision over two regions, the thoracic and lumbar, of the spine in each animal were made. Each incision allowed for the exposure of spinous processes and lamina of at east 2 levels per region. Decortication was carried out at each thoracic and lumbar region using a high-speed drill. Over the decorticated levels, nothing, gelmatrix, gelmatrix plus 8 mg lovastatin or gelmatrix plus 16 mg lovastatin were added. 8 mg I.M. of antibiotic Cefazolin™ was subcutaneously administered to each rat.
# For purposes of analysis, the rats were divided into three groups. Group A consisting of rats 1-4 was treated with nothing or gelmatrix. Group B consisting of rats 5-8 was treated with gelmatrix and 8 mg of lovastatin. And, group C consisting of rats 9-12 was treated with gelmatrix and 16 mg of lovastatin. The following is a summary of the data:
# After en bloc removal, two observers manually palpated the spine of each rat in a blinded fashion. Palpation was made by flexion and extension at the level of the arthrodesis and at the adjacent levels proximally and distally. […] Each motion segment was graded on a qualitative scale (0-3) based on the strength of the fusion. A solid fusion having no motion was given a score of 3. […] No fusion was scored as a 0. […]
smiles,measurement,setting,value
CC[C@H](C)C(=O)O[C@H]1C[C@@H](C)C=C2C=C[C@H](C)[C@H](CC[C@@H]3C[C@@H](O)CC(=O)O3)[C@H]21 [lovastatin],rats treated with lovastatin that had a stronger fusion at the treated region than rats not treated,"gelmatrix plus 8 mg or 16 mg lovastatin over decorticated thoracic or lumbar levels, blinded manual palpation, scale 0-3",seventy five
same,dose dependence of fusion grades (palpation score 0-3),"gelmatrix plus 8 mg vs 16 mg lovastatin, FIG. 11",dose dependent
